Results published in patent US20230256004A1, “COMPOSITIONS AND METHODS FOR TREATING MOOD DISORDERS AND CIRCADIAN RHYTHM SLEEP DISORDERS” (Light Aqua LLC, priority 2020, published 2023).

What was measured:
[1] = system: Major Depressive Disorder; assay: proposed treatment of Major Depressive Disorder with deuterium oxide/scopolamine solution; format: in vivo, human; settings: Major Depressive Disorder subjects; proposed experiment
[2] = system: humans; settings: acute treatment; 1% of total body water versus 15% toxic
[3] = system: circadian rest/activity cycle; settings: cited from earlier work
[4] = system: rest/activity clock; settings: cited from earlier work
[5] = system: fish and tadpoles; settings: cited from earlier work
[6] = system: rats and mice; settings: cited from earlier work
[7] = system: mammals; settings: in vivo; cited from earlier work
[8] = system: humans; settings: cited from earlier work
[9] = system: one-celled algae; settings: in vivo; cited from earlier work
[10] = in vivo; cited from earlier work

## [2H]O[2H] [deuterium oxide]
[1]
  predicted time for treatment regimen to take effect: ≤ 2 days
[2]
  estimated Therapeutic Index (ratio of toxic dose to therapeutic dose): about 15
[3]; mice, 5% deuterium oxide, Dowse 1972
  time for chronomutagenic effect to take effect: ≤ 24 h
[3]; white mice, maximum 30% deuterium oxide dose administered, Suter and Rawson 1968
  increase in period length of the activity rest cycle: ≤ 6%
[4]; hamsters, Richter 1977
  deuterium oxide concentration at which circadian rhythm began to fluctuate: 5%
  drinking-water deuterium oxide concentration at which rest/activity cycle was freed from entrainment by light/dark: 10%
[4]; hamsters, on average, linear response, no lower threshold
  slowing of circadian rhythms per 5% deuterium oxide concentration increase in total body water: about 1%
[4]; one hamster, Richter 1977
  deuterium oxide concentration at which circadian rhythm began to fluctuate, one hamster: 1%
[5]
  heavy water concentration survived long-term: 30%
[6]; in vivo
  body water replacement at which intoxication signs and symptoms occur: over 15%
  deuterium oxide concentration recommended as safe long term: 5%
[6]; rats and mice
  body water deuterium oxide concentration producing coma and then death: 30-35%
[7]
  drinking water concentration of deuterium oxide safe long term: 5%
[8]; humans, Wallace 1995
  concentration in human fluids found not to be toxic over short time periods: ≤ 23%
[8]; in vivo
  acute replacement of total body water with no evident adverse effects: 15-23%
  adverse effects: no adverse effects
  adverse effects after one liter: severe vertigo with emesis
  deuterium oxide concentration considered safe long term: 1%
  dose at which positional ocular nystagmus was observed: 25 to 50 mL
  duration of nystagmus: up to 140 minutes
  harmful effects in babies: no observed harmful effects
  onset of nystagmus post ingestion: about 20 minutes
  onset of vertigo after dose: 30 min
  reactions to deuterium oxide: short-term vertigo in two of the subjects
  sensitivity of humans to toxic effects compared to mice: roughly 5 times
  threshold dosage for noticeable side-effects: 70 to 140 g
  total body water concentration considered toxic threshold: ≥ 15%
[9]
  deuterium oxide concentration survived long-term: 100%
[10]
  elimination half-life: up to 10 days
  metabolites: no metabolites
